Values of other authors in article PMC9972852, “Multivalent effect of peptide functionalized polymeric nanoparticles towards selective prostate cancer targeting” (Nanoscale Advances, 2023).

Tested on: extracellular domain of PSMA
Conditions: monomeric peptide WQPDTAHHWATL
Excerpt: Prostate specific membrane antigen (PSMA) is a 100 kDa type II transmembrane glycosylated protein with folate hydrolase activity and is overexpressed not only in nearly all prostate cancer cells,[6] but also in tumor neovasculature in a variety of cancers.[6–8] In contrast, it has minimal expression (100–1000 times lower) in normal prostate epithelium tissues and other normal tissues,[7,9] making it an ideal biomarker for the design of various targeted therapies. Several different kinds of targeting ligands against PSMA have been discovered over the years;[10–12] however, they have not yet had ...

Sequence: WQPDTAHHWATLC [WQP peptide, PSMA-targeting cell targeting peptide …, synthesized with an added C-terminal cysteine]
- Binding affinity to the extracellular domain of PSMA: moderate/low
